Measured values from the NIST ThermoML archive (doi:10.1007/s10765-008-0535-5).

Assay: molar heat capacity at constant volume
Conditions: Liquid, Vacuum adiabatic calorimetry

FCF [difluoromethane]
Conditions	molar heat capacity at constant volume [J/K/mol]
268.15 K, 8268 kPa	49.47
268.15 K, 8502 kPa	48.8
269.15 K, 9280 kPa	49.32
269.15 K, 9512 kPa	49.68
270.15 K, 10291 kPa	49.47
270.15 K, 10521 kPa	49.84
271.15 K, 11302 kPa	49.42
271.15 K, 11531 kPa	49.53
272.15 K, 12312 kPa	49.94
272.15 K, 12421 kPa	50.57
272.15 K, 12540 kPa	49.06
273.15 K, 13321 kPa	49.06
273.15 K, 13429 kPa	49.79
273.15 K, 13551 kPa	50.25
274.15 K, 14330 kPa	49.94
274.15 K, 14438 kPa	49.63
274.15 K, 14560 kPa	49.37
275.15 K, 15337 kPa	49.47
275.15 K, 15444 kPa	49.84
275.15 K, 15568 kPa	49.47
276.15 K, 16344 kPa	49.89
276.15 K, 16452 kPa	49.84
276.15 K, 16577 kPa	49.73
277.15 K, 17350 kPa	49.32
277.15 K, 17457 kPa	49.63
277.15 K, 17583 kPa	49.99
278.15 K, 18354 kPa	49.89
278.15 K, 18462 kPa	50.25
278.15 K, 18589 kPa	49.47
279.15 K, 19358 kPa	49.89
279.15 K, 19465 kPa	49.79
279.15 K, 19595 kPa	50.15
280.15 K, 20361 kPa	49.63
280.15 K, 20468 kPa	50.2
280.15 K, 20598 kPa	49.99
281.15 K, 21363 kPa	50.46
281.15 K, 21470 kPa	49.63
281.15 K, 21601 kPa	49.89
282.15 K, 22363 kPa	49.58
282.15 K, 22472 kPa	50.25
282.15 K, 22602 kPa	50.05
283.15 K, 23363 kPa	50.41
283.15 K, 23473 kPa	50.15
283.15 K, 23603 kPa	49.94
284.15 K, 24362 kPa	50.31
284.15 K, 24472 kPa	49.94
284.15 K, 24606 kPa	50.25
285.15 K, 25359 kPa	50.15
285.15 K, 25470 kPa	50.51
285.15 K, 25603 kPa	50.25
286.15 K, 26356 kPa	50.51
286.15 K, 26466 kPa	50.62
286.15 K, 26598 kPa	50.2
287.15 K, 27351 kPa	50.36
287.15 K, 27461 kPa	50.2
287.15 K, 27594 kPa	50.36
288.15 K, 28345 kPa	50.57
288.15 K, 28454 kPa	50.62
288.15 K, 28588 kPa	50.41
289.15 K, 5774 kPa	51.24
289.15 K, 5835 kPa	49.79
289.15 K, 29338 kPa	50.46
289.15 K, 29446 kPa	50.72
289.15 K, 29581 kPa	51.09
290.15 K, 6570 kPa	50.62
290.15 K, 6631 kPa	50.93
291.15 K, 7365 kPa	51.14
291.15 K, 7428 kPa	51.19
292.15 K, 8161 kPa	51.24
292.15 K, 8224 kPa	51.14
293.15 K, 8956 kPa	51.4
293.15 K, 9019 kPa	51.71
294.15 K, 9752 kPa	51.66
294.15 K, 9815 kPa	50.83
295.15 K, 10546 kPa	51.19
295.15 K, 10610 kPa	51.56
296.15 K, 11341 kPa	51.19
296.15 K, 11405 kPa	51.5
297.15 K, 12135 kPa	51.61
297.15 K, 12199 kPa	51.35
298.15 K, 12929 kPa	51.5
298.15 K, 12993 kPa	51.92
299.15 K, 13723 kPa	51.66
299.15 K, 13787 kPa	51.82
300.15 K, 14517 kPa	51.66
300.15 K, 14581 kPa	52.08
301.15 K, 15309 kPa	52.34
301.15 K, 15374 kPa	51.92
302.15 K, 16102 kPa	52.08
302.15 K, 16167 kPa	52.23
303.15 K, 16894 kPa	52.13
303.15 K, 16960 kPa	52.49
304.15 K, 17685 kPa	52.13
304.15 K, 17752 kPa	52.54
305.15 K, 18476 kPa	52.75
305.15 K, 18543 kPa	52.6
306.15 K, 19267 kPa	52.75
306.15 K, 19335 kPa	52.8
307.15 K, 20125 kPa	52.49
308.15 K, 20848 kPa	52.91
308.15 K, 20915 kPa	52.8
309.15 K, 21639 kPa	52.7
309.15 K, 21704 kPa	53.32
310.15 K, 22429 kPa	52.86
310.15 K, 22492 kPa	53.12
311.15 K, 23217 kPa	53.17
311.15 K, 23281 kPa	53.69
312.15 K, 24005 kPa	53.64
312.15 K, 24068 kPa	53.79
313.15 K, 24793 kPa	53.53
313.15 K, 24855 kPa	53.79
314.15 K, 25579 kPa	53.79
314.15 K, 25641 kPa	53.43
315.15 K, 26364 kPa	53.58
315.15 K, 26427 kPa	54
316.15 K, 27149 kPa	53.53
316.15 K, 27212 kPa	54.68
317.15 K, 27934 kPa	54.42
317.15 K, 27996 kPa	54.21
318.15 K, 28719 kPa	54.1
318.15 K, 28779 kPa	54.78
